Results taken from patent publication US7718190B2, “Self forming, thermodynamically stable liposomes and their applications” (priority 2000, dated 2010).

Key:
[1] = Dissolution of compounds in PEG-12 Glyceryl Dioleate; type: physicochemical; conditions: for Dissolution in PEG-12 Glyceryl Dioleate (observation): before addition of water
Procedure: It will be appreciated that, while liposomes form spontaneously at the temperature of formation, cooling of liposomes after formation results in liposomes in trapped kinetic states. To minimize distortions in liposome structure upon such cooling, sterols such as cholesterol may be mixed with the lipid before liposome formation. It has been observed that cholesterol may be dissolved in PEG-12 GDO at up to about 10 percent by weight.
Methotrexate (Sigma) was dissolved in PEG-12 Glyceryl Dioleate and gently mixed for about 5 minutes. […] Deionized water was slowly added to the solution and gently mixed. The resultant mixture was a yellow, opaque solution.
Tretinoin (all-trans retinoic acid), 6 mg, was dissolved in 500 ul of PEG-12 Glyceryl Dioleate. […] Distilled water, 4.5 ml, was added to the mixture and gently mixed. This yielded a concentration of […]. […] This solution can easily be incorporated into a cream, gel or lotion dosage form.

[2] = Spontaneous liposome formation of single lipids mixed with aqueous solution; type: physicochemical
Procedure: Lipids were tested at 2 weight percent in aqueous solution. Note that GDL means glycerol dilaurate, GDO means glycerol dioleate, GDM means glycerol dimyristate, GDP means glycerol dipalmitate, and GDS means glycerol distearate. For each lipid, the number after “PEG” indicates the numbers of C2H4O subunits in the PEG chain. The unsaturated dioleate lipids have similar packing parameters to the saturated dimyristate lipids.
Single lipids were tested for their ability to spontaneously form liposomes when mixed with an aqueous solution. PEG-12 GDO was obtained from Global 7 (New Jersey). All other lipids were synthesized for the experiment. For each experiment, water and lipid were separately equilibrated at the appropriate temperature. Two weight percent lipid was added to the aqueous solution, and the solution was analyzed for the presence of liposomes by optical light microscopy, cryo TEM, freeze fracture TEM, or hot stage microscopy.

With `CN(Cc1cnc2nc(N)nc(N)c2n1)c1ccc(C(=O)N[C@@H](CCC(=O)O)C(=O)O)cc1` [Methotrexate] the “Dissolution in PEG-12 Glyceryl Dioleate (observation)” value [1] was “clear solution”.

For `CC1=C(/C=C/C(C)=C/C=C/C(C)=C/C(=O)O)C(C)(C)CCC1` [Tretinoin], the “Dissolution in PEG-12 Glyceryl Dioleate (observation)” value [1] was “Dissolution was complete”.

With `CC(C)CCC[C@@H](C)[C@H]1CC[C@H]2[C@@H]3CC=C4C[C@@H](O)CC[C@]4(C)[C@H]3CC[C@]12C` [cholesterol] the “Amount dissolved in PEG-12 GDO” value ([1]; in PEG-12 GDO) was “up to 10 percent by weight”.

For PEG-12 Glyceryl Dioleate [PEG-12 GDO], the “Spontaneous Liposomes at 20° C.” value ([2]; 2 weight percent lipid in aqueous solution, 20° C.) was “YES”, the “Spontaneous Liposomes at 37° C.” value ([2]; 2 weight percent lipid in aqueous solution, 37° C.) was “YES” and the “Spontaneous Liposomes at 60° C.” value ([2]; 2 weight percent lipid in aqueous solution, 60° C.) was “YES”. The “Spontaneous liposome formation” value ([2]; all temperatures tested (20, 37, 60° C.)) was “spontaneously forms liposomes at all temperatures tested”.
